What was measured:
[1] = system: L-687,414-induced hyperlocomotion; experiment: Reduction of L-687,414-induced hyperlocomotion; format: in vivo, mouse; details: mice, dose 30 mg/kg ip, 15 min before s.c. 50 mg/kg L-687,414
Source text: The authors described that hyperlocomotion induced by L-687,414 was inhibited by a series of known antipsychotic drugs. […] These findings predict antipsychotic activity for the present compounds, making them useful for the treatment of positive (psychosis) and negative symptoms of schizophrenia, substance abuse, alcohol and drug addiction, obsessive-compulsive disorders, cognitive impairment, bipolar disorders, mood disorders, major depression, resistant depression, anxiety disorders, Alzheimer's disease, autism, Parkinson's disease, chronic pain, borderline personality disorder, sleep disturbances, chronic fatigue syndrome, stiffness, antiinflammatory effects in arthritis and balance problems, epilepsy and neurodevelopmental disorders with co-morbid epilepsy.
The described compounds of formula I reduce L-687,414-induced hyperlocomotion. This was assessed by using a computerized Digiscan 16 Animal Activity Monitoring System (Omnitech Electronics, Columbus, Ohio) to quantify locomotor activity. Animals were kept under a 12 h light/dark cycle and experiments were performed during the light period. Each activity monitoring chamber consisted of a Plexiglas box (41×41×28 cm; W×L×H) with sawdust bedding on the floor surrounded by invisible horizontal and vertical infrared sensor beams. The test boxes were divided by a Plexiglas cross providing each mouse with 20×20 cm of moving space. Cages were connected to a Digiscan Analyzer linked to a computer that constantly collected the beam status information. Records of photocell beam interruptions for individual animals were taken every 5 min over the duration of the experimental session and the sum of the first 6 periods was used as the final parameter. At least 8 mice were used in each treatment group. Compounds were administered i.p. 15 min before a s.c. injection of 50 mg/kg of L-687,414. Mice were then transferred from their home cage to the recording chambers for a 15-min habituation phase allowing free exploration of the new environment. Horizontal activity was then recorded for a 30-min time period. The % inhibition of L-687,414-induced hyperlocomotion was calculated according to the equation: ((Veh+L-687,414 horizontal activity−drug+L-687,414 horizontal activity)/Veh+L-687,414 horizontal activity)×100
ID50 values, defined as doses of each compound producing 50% inhibition of L-687,414-induced hyperlocomotion, were calculated by linear regression analysis of a dose-response data using an Excel-based computer-fitting program. As data was not presupposed to be normally distributed, groups treated with test compounds were statistically compared with the control (vehicle-treated) group using one-tailed Mann Whitney U tests. In statistics, the Mann-Whitney U test (also called the Mann-Whitney-Wilcoxon (MWW) or Wilcoxon rank-sum test) is a non-parametric statistical hypothesis test for assessing whether one of two samples of independent observations tends to have larger values than the other. It is one of the most well-known non-parametric significance tests. […] P values given in table 1 are one-tailed since only decreases in locomotion were expected and tested for (Mann, H. B., Whitney, D. R. (1947), “On a Test of Whether one of Two Random Variables is Stochastically Larger than the Other”, Annals of Mathematical Statistics, 18 (1), 50-60).

mouse ENT-1 transporter = molecular target: T1, mouse ENT-1 transporter (Mus musculus, UniProt Q9JIM1); experiment: Adenosine transport activity (ENT1, [3H]-adenosine uptake); format: cell-based; details: stable cells expressing mouse ENT-1; [2,8-3H]-adenosine 6 nM, 20 min
T1 construct: expressed in transfected cells
T1 sequence (Q9JIM1 1-460): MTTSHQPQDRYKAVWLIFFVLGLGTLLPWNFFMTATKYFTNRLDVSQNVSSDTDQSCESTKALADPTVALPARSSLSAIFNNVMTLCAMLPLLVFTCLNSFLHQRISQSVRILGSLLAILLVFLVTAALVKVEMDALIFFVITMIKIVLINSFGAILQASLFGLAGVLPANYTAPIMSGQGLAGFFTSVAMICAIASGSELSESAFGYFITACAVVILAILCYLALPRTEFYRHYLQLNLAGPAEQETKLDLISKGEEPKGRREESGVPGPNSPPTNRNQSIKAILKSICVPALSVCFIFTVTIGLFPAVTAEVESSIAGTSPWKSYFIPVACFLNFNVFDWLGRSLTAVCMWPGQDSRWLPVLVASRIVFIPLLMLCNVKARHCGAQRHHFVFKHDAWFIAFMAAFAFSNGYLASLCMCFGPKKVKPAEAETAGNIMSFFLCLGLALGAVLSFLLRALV
Method: To measure adenosine transport activity of ENT-1 mammalian cells, stable cells expressing the mouse ENT-1 transporter were plated on day 1 in 96-well culture plates at the density of 60,000 cells/well, in complete DMEM/F12 medium supplemented with glutamax, 10% FBS and 10 μg/ml puromycin. On day 2, the medium was aspirated and the cells were washed twice with uptake buffer (10 mM Hepes-Tris, pH 7.4 containing 150 mM NaCl, 1 mM CaCl2, 2.5 mM KCl, 2.5 mM MgSO4, 10 mM D-glucose) (UB). For inhibition experiments, cells were then incubated at RT with various concentrations of compounds with 1% DMSO final. Non-specific uptake was defined in the presence of 10 μM S-(4-Nitrobenzyl)-6-thioinosine (NBTI, Sigma Cat #N2255).
A solution containing [2,8-^3H]-adenosine 6 nM (40 Ci/mmol, American Radiolabeled chemicals Inc, Cat #ART 0287A) was then immediately added to the wells. The plates were then incubated for 20 min with gentle shaking and the reaction was stopped by aspiration of the mixture and washing (three times) with ice-cold UB. The cells were lysed by the addition of scintillation liquid, shaken 3 hours and the radioactivity in the cells was estimated using a microplates scintillation counter (TopCount NXT, Packard).

Structure (SMILES)	IC50 (mouse ENT-1 transporter) [nM]	Inhibition, ip [%] of L-687,414-induced hyperlocomotion [1] [%]
Cc1ncc(-c2ccc3c(c2)N(c2ccc(C(=O)N(C)C)cn2)C(=O)C3(C)C)cn1 [Example 29, 6-(3,3-Dimethyl-6-(2-methylpyrimidin-5-yl)-2-oxoindolin-1-yl)-N,N-dimethylnicotinamide]	585	93
CNC(=O)c1cncc(N2C(=O)C(C)(C)c3ccc(-c4cnc(C)nc4)cc32)n1 [Example 2, 6-(3,3-Dimethyl-6-(2-methylpyrimidin-5-yl)-2-oxoindolin-1-yl)-N-methylpyrazine-2-carboxamide]	28	97.5
Cc1ncc(-c2ccc3c(c2)N(c2cncc(C(=O)N(C)C)c2)C(=O)C3(C)C)cn1 [Example 30, 5-(3,3-Dimethyl-6-(2-methylpyrimidin-5-yl)-2-oxoindolin-1-yl)-N,N-dimethylnicotinamide]	608	–
CNC(=O)c1ccnc(N2C(=O)C(C)(C)c3ccc(-c4cnc(C)nc4)cc32)n1 [Example 16, 2-(3,3-Dimethyl-6-(2-methylpyrimidin-5-yl)-2-oxoindolin-1-yl)-N-methylpyrimidine-4-carboxamide]	241	94.6
Cc1ncc(-c2ccc3c(c2)N(c2cnc(C(=O)N(C)C)cn2)C(=O)C3(C)C)cn1 [Example 11, 5-[3,3-Dimethyl-6-(2-methylpyrimidin-5-yl)-2-oxoindol-1-yl]-dimethylpyrazine-2-carboxamide]	123	98.4
CNC(=O)c1nc(N2C(=O)C(C)(C)c3ccc(-c4cnc(C)nc4)cc32)ccc1C [Example 27, 6-(3,3-Dimethyl-6-(2-methylpyrimidin-5-yl)-2-oxoindolin-1-yl)-N,3-dimethylpicolinamide]	14.8	–
CNC(=O)c1cccc(N2C(=O)C(C)(C)c3ccc(-c4cnc(C)nc4)cc32)n1 [Example 22, 6-(3,3-Dimethyl-6-(2-methylpyrimidin-5-yl)-2-oxoindolin-1-yl)-N-methylpicolinamide]	8.5	95.6
Cc1ncc(-c2ccc3c(c2)N(c2cncc(C(=O)NC4COC4)n2)C(=O)C3(C)C)cn1 [Example 43, 6-(3,3-Dimethyl-6-(2-methylpyrimidin-5-yl)-2-oxoindolin-1-yl)-N-(oxetan-3-yl)pyrazine-2-carboxamide]	319	–

More lines, main results first:

IC50 (mouse ENT-1 transporter) [nM]	Structure (SMILES)	Inhibition, ip [%] of L-687,414-induced hyperlocomotion [1] [%]
88.4	COCCNC(=O)c1cncc(N2C(=O)C(C)(C)c3ccc(-c4cnc(C)nc4)cc32)n1 [Example 7, 6-(3,3-Dimethyl-6-(2-methylpyrimidin-5-yl)-2-oxoindolin-1-yl)-N-(2-methoxyethyl)pyrazine-2-carboxamide]	88.1
45.8	Cc1ncc(-c2ccc3c(c2)N(c2cccc(C(=O)NC4CC4)n2)C(=O)C3(C)C)cn1 [Example 24, N-Cyclopropyl-6-(3,3-dimethyl-6-(2-methylpyrimidin-5-yl)-2-oxoindolin-1-yl)picolinamide]	99.1
964	Cc1ncc(-c2ccc3c(c2)N(c2ccc(C(=O)N(C)C)nn2)C(=O)C3(C)C)cn1 [Example 21, 6-(3,3-Dimethyl-6-(2-methylpyrimidin-5-yl)-2-oxoindolin-1-yl)-N,N-dimethylpyridazine-3-carboxamide]	–
513	Cc1ncc(-c2ccc3c(c2)N(c2cncc(C(=O)N(C)CC(F)(F)F)n2)C(=O)C3(C)C)cn1 [Example 4, 6-(3,3-Dimethyl-6-(2-methylpyrimidin-5-yl)-2-oxoindolin-1-yl)-N-methyl-N-(2,2,2-trifluoroethyl)pyrazine-2-carboxamide]	–
253	Cc1ncc(-c2ccc3c(c2)N(c2cccc(C(N)=O)n2)C(=O)C3(C)C)cn1 [Example 26, 6-(3,3-Dimethyl-6-(2-methylpyrimidin-5-yl)-2-oxoindolin-1-yl)picolinamide]	–
49.9	Cc1ncc(-c2ccc3c(c2)N(c2cccc(C(=O)NCC4CC4)n2)C(=O)C3(C)C)cn1 [Example 25, N-(Cyclopropylmethyl)-6-(3,3-dimethyl-6-(2-methylpyrimidin-5-yl)-2-oxoindolin-1-yl)picolinamide]	–
76.4	Cc1ncc(-c2ccc3c(c2)N(c2cncc(C(=O)NC4CC4)n2)C(=O)C3(C)C)cn1 [Example 39, N-Cyclopropyl-6-(3,3-dimethyl-6-(2-methylpyrimidin-5-yl)-2-oxoindolin-1-yl)pyrazine-2-carboxamide]	–

Source: patent US11066393B2, “Indolin-2-one derivatives” (Hoffmann-La Roche Inc., priority 2015, dated 2021)
